# Values quoted from earlier work as cited in patent US20090163510A1 (Bristol-Myers Squibb Company, priority 2005, published 2009).
# Structures can show the parent of a compound that is named as a salt. Where two headings read alike, the source gives them in different places.
# System: CML
# Conditions: CML patients, Kantarjian et al.
structure (smiles),measurement,setting,value
"Cc1ccc(NC(=O)c2ccc(CN3CCN(C)CC3)cc2)cc1Nc1nccc(-c2cccnc2)n1 [imatinib, Imatinib mesylate]",estimated 2-year incidence of resistance,blastic phase,80%
same,estimated 2-year incidence of resistance,chronic phase post-interferon failure,10%
